Structures can show the parent of a compound that is named as a salt.
Assay: Dynamic moisture sorption (DMS) analysis of crystalline forms
Format: physicochemical
Conditions: for DMS: weight picked up at 90% RH / DMS: increase of weight at about 90% relative humidity: isotherm 25° C.; for Change of crystal form during DMS analysis (in words): high % RH; for DMS: increase of weight at about 90% relative humidity: physical-property summary tables; for Hygroscopicity by DMS (in words): up to 90% RH
Procedure: Further characterization with respect to hygroscopicity of the crystalline forms can be gauged by, for example, dynamic moisture sorption (DMS). The DMS features reported herein can vary by plus or minus about 5% relative humidity. The DMS features reported herein can also vary by plus or minus about 5% weight change.
Samples are prepared for dynamic moisture-sorption analysis by placing ˜5 mg to ˜20 mg of compound in a tarred sample holder on the VTI balance. The instrument is a dynamic moisture-sorption analyzer, VTI Corporation, SGA-100, equipment #0228. A drying step is run at 40° C. and ˜1% RH for 1 h. The isotherm temperature is 25° C. A % weight change over 10 min (5 weight readings) of dm/dt=0.010 or 2 h, whichever occurs first, is required before continuing to the next step. The water content of the sample equilibrated as described above was determined from 30% RH to 90% RH and then back down to 10% RH.

Row | SMILES | DMS: weight picked up at 90% RH | Change of crystal form during DMS analysis (in words) | DMS: increase of weight at about 90% relative humidity | Hygroscopicity by DMS (in words)
1 | O.O=C(COC[C@H]1CC[C@H](COC(=O)N(c2ccccc2)c2ccc(Cl)cc2)CC1)NCCS(=O)(=O)O [Compound Ia free acid hydrate, 2-(2-(((1r,4r)-4-(((4-chlorophenyl)(phenyl)carbamoyloxy)methyl)cyclohexyl)methoxy)acetamido)ethanesulfonic acid hydrate] | over 10 % by weight | form a new hydrate crystal phase at high % RH values | FIG. 3: Increase of about 10% weight at about 90% relative | hygroscopic
2 | O=C(COC[C@H]1CC[C@H](COC(=O)N(c2ccccc2)c2ccc(Cl)cc2)CC1)NCCS(=O)(=O)O [Compound Ia TRIS salt, 2-(2-(((1r,4r)-4-(((4-Chlorophenyl)(phenyl)carbamoyloxy)methyl)cyclohexyl)methoxy)acetamido)ethanesulfonic Acid] | about 1.2 % by weight |  |  | slightly hygroscopic
3 | O.O=C(COC[C@H]1CC[C@H](COC(=O)N(c2ccccc2)c2ccc(Cl)cc2)CC1)NCCS(=O)(=O)[O-].O=C(COC[C@H]1CC[C@H](COC(=O)N(c2ccccc2)c2ccc(Cl)cc2)CC1)NCCS(=O)(=O)[O-].[Ca+2] [Compound Ia calcium salt hydrate I, calcium 2-(2-(((1r,4r)-4-(((4-chlorophenyl)(phenyl)carbamoyloxy)methyl)cyclohexyl)methoxy)acetamido)ethanesulfonate hydrate I] | about 7 % by weight | converting to Compound Ia calcium salt hydrate IV | FIG. 17: Increase of 7% weight at about 90% relative humidity | hygroscopic
4 | N=C(N)NCCC[C@H](N)C(=O)O.O.O=C(COC[C@H]1CC[C@H](COC(=O)N(c2ccccc2)c2ccc(Cl)cc2)CC1)NCCS(=O)(=O)O [Compound Ia L-arginine salt hydrate, L-arginine 2-(2-(((1r,4r)-4-(((4-chlorophenyl)(phenyl)carbamoyloxy)methyl)cyclohexyl)methoxy)acetamido)ethanesulfonate hydrate] | about 1 % by weight |  | FIG. 31: Increase of about 1% weight at about 90% relative | slightly hygroscopic
5 | O.O=C(COC[C@H]1CC[C@H](COC(=O)N(c2ccccc2)c2ccc(Cl)cc2)CC1)NCCS(=O)(=O)[O-].[K+] [Compound Ia potassium salt hydrate, potassium 2-(2-(((1r,4r)-4-(((4-chlorophenyl)(phenyl)carbamoyloxy)methyl)cyclohexyl)methoxy)acetamido)ethanesulfonate hydrate] | 3-4 % by weight |  |  | slightly hygroscopic
6 | O.O=C(COC[C@H]1CC[C@H](COC(=O)N(c2ccccc2)c2ccc(Cl)cc2)CC1)NCCS(=O)(=O)[O-].O=C(COC[C@H]1CC[C@H](COC(=O)N(c2ccccc2)c2ccc(Cl)cc2)CC1)NCCS(=O)(=O)[O-].[Mg+2] [Compound Ia magnesium salt hydrate, magnesium 2-(2-(((1r,4r)-4-(((4-chlorophenyl)(phenyl)carbamoyloxy)methyl)cyclohexyl)methoxy)acetamido)ethanesulfonate hydrate] | 1.2 % by weight |  | FIG. 14: Increase of 1.2% weight at about 90% relative humidity | slightly hygroscopic

Reference: patent publication US20120225937A1, “CRYSTALLINE FORMS AND PROCESSES FOR THE PREPARATION OF PG12 RECEPTOR AGONISTS” (Arena Pharmaceuticals, Inc., priority 2009, published 2012)
